Results taken from patent US20230053540A1, “TREATMENT OF LIVER INJURY” (Massachusetts Institute of Technology, priority 2019, published 2023).

Tested on: hepatocytes
Test: Seq-Well scRNA-Seq of hepatocytes after APAP overdose (signature scores, DEG vs untreated)
Type: in vivo, mouse
Settings: cluster A48 (APAP, 48 h)

`CC(=O)Nc1ccc(O)cc1` [APAP, acetaminophen] was tested, and the “avg_logFC Cyp4a10” value was 1.157, the “avg_logFC Cyp4a14” value was 1.488 and the “avg_logFC Dbp” value was 0.2929. The “avg_logFC Dcxr” value was 0.3518, the “avg_logFC Ddb1” value was 0.3373 and the “avg_logFC Decr1” value was 0.5941. For the same compound, the “avg_logFC Decr2” value was 0.4308, the “avg_logFC Dhrs4” value was 0.342 and the “avg_logFC Ech1” value was 0.5251. The “avg_logFC Echs1” value was 0.4926, the “avg_logFC Eef1d” value was 0.2745 and the “avg_logFC Ephx2” value was 0.4864. For the same compound, the “avg_logFC Esrra” value was 0.2518, the “avg_logFC Etfb” value was 0.3542 and the “avg_logFC Etnppl” value was 0.6045. The “avg_logFC F2” value was 0.3767, the “avg_logFC F10” value was 0.3879 and the “avg_logFC F12” value was 0.385. For the same compound, the “avg_logFC Fah” value was 0.3039, the “avg_logFC Fam195a” value was 0.3544 and the “avg_logFC Fcgrt” value was 0.4314. For the same compound, the “avg_logFC Fth1” value was 0.4342, the “avg_logFC G0s2” value was 0.4232 and the “avg_logFC Gabarap” value was 0.4376. The “avg_logFC Galk1” value was 0.2686, the “avg_logFC Gcdh” value was 0.306 and the “avg_logFC Gchfr” value was 0.3676. For the same compound, the “avg_logFC Ggnbp2” value was 0.2821, the “avg_logFC Glrx5” value was 0.3308 and the “avg_logFC Gltscr2” value was 0.3759. For the same compound, the “avg_logFC Gm6484” value was 0.3759, the “avg_logFC Gsta2” value was 0.2734 and the “avg_logFC Gsto1” value was 0.3392. The “avg_logFC Gstt2” value was 0.3234, the “avg_logFC Gstt3” value was 0.3834 and the “avg_logFC Gys2” value was 0.4182. For the same compound, the “avg_logFC Hdac11” value was 0.3963, the “avg_logFC Herpud1” value was 0.5965 and the “avg_logFC Hmgcl” value was 0.619. The “avg_logFC Hmgcs2” value was 0.8196, the “avg_logFC Hrg” value was 0.436 and the “avg_logFC Hsd17b10” value was 0.4452. For the same compound, the “avg_logFC Hsd17b13” value was 0.6427, the “avg_logFC Ifnar2” value was 0.2833 and the “avg_logFC Khk” value was 0.5338. For the same compound, the “avg_logFC Lamp1” value was 0.3377, the “avg_logFC Lcat” value was 0.4733 and the “avg_logFC Lims2” value was 0.3931. For the same compound, the “avg_logFC Lipa” value was 0.3277, the “avg_logFC Mat1a” value was 0.6585 and the “avg_logFC Mfsd2a” value was 0.5827. For the same compound, the “avg_logFC Mgll” value was 0.3192, the “avg_logFC Mia3” value was 0.3374 and the “avg_logFC Mlycd” value was 0.4637. The “avg_logFC Mrpl43” value was 0.2692, the “avg_logFC Ndrg2” value was 0.3498 and the “avg_logFC Ndufb2” value was 0.407. For the same compound, the “avg_logFC Ndufb10” value was 0.3471, the “avg_logFC Ndufs7” value was 0.2882 and the “avg_logFC Ninj1” value was 0.3542. The “avg_logFC Nr1i3” value was 0.5739, the “avg_logFC Oaf” value was 0.5619 and the “avg_logFC Pabpc1” value was 0.5116. For the same compound, the “avg_logFC Park7” value was 0.403, the “avg_logFC Pbld1” value was 0.3989 and the “avg_logFC Pbld2” value was 0.3619. For the same compound, the “avg_logFC Pigr” value was 0.4224, the “avg_logFC Pitpnb” value was 0.2726 and the “avg_logFC Plin5” value was 0.3264. For the same compound, the “avg_logFC Pnpla2” value was 0.3457, the “avg_logFC Ppara” value was 0.3442 and the “avg_logFC Prodh2” value was 0.5179. For the same compound, the “avg_logFC Rabac1” value was 0.3343, the “avg_logFC Rbp4” value was 0.5139 and the “avg_logFC Rdh7” value was 0.5575. For the same compound, the “avg_logFC Reep6” value was 0.5902, the “avg_logFC Retsat” value was 0.8734 and the “avg_logFC Rgs16” value was 0.3803. For the same compound, the “avg_logFC Rpl4” value was 0.3744, the “avg_logFC Rpl38” value was 0.3455 and the “avg_logFC Scand1” value was 0.2581. For the same compound, the “avg_logFC Sco2” value was 0.317, the “avg_logFC Sdhc” value was 0.4334 and the “avg_logFC Sdhd” value was 0.4849. The “avg_logFC Sec14l2” value was 0.389, the “avg_logFC Serpina1d” value was 0.3563 and the “avg_logFC Serpinf1” value was 0.3954. The “avg_logFC Serping1” value was 0.4435, the “avg_logFC Sh3glb1” value was 0.3259 and the “avg_logFC Shmt1” value was 0.3827. For the same compound, the “avg_logFC Slc10a1” value was 0.4562, the “avg_logFC Slc25a10” value was 0.4539 and the “avg_logFC Slc25a20” value was 0.4208. The “avg_logFC Slc25a47” value was 0.5249, the “avg_logFC Slc27a2” value was 0.3146 and the “avg_logFC Slc27a5” value was 0.41. The “avg_logFC Slc37a4” value was 0.4211, the “avg_logFC Slc40a1” value was 0.332 and the “avg_logFC Slco1a4” value was 0.5466. For the same compound, the “avg_logFC Smlr1” value was 0.3065 and the “avg_logFC Snord118” value was 0.5286.
